# Experimental data published in patent US6555566B2, “Methods and materials for treating and preventing inflammation of mucosal tissue” (Mayo Foundation for Medical Education and Research, priority 1997, dated 2003).
# “And” between values parts separate entries of the source, which are not always exact repeats. Equal entries are not always repeated.
# Tests used:
# [1] = system: non-invasive fungus-induced rhinosinusitis patients; experiment: Amphotericin B irrigations in patients without previous nasal surgery; type: in vivo, human
# Source text: A person was diagnosed with non-invasive fungus-induced rhinosinusitis and instructed to perform amphotericin B irrigations twice a day.
# A person was diagnosed with non-invasive fungus-induced rhinosinusitis and instructed to perform amphotericin B irrigations twice a day, which was later increased to four times a day.
# A person was diagnosed with non-invasive fungus-induced rhinosinusitis and instructed to perform amphotericin B irrigations twice a day. This patient had been given intramuscular steroid shots every 3 to 8 months with the last shot being administered about seven months prior to starting the amphotericin B irrigations.
# chronic asthma patients = experiment: Chronic asthma symptoms in patients of the amphotericin B irrigation study
# Protocol: One hundred and thirty-two consecutive rhinosinusitis patients were entered into a study to evaluate the use of an antifungal agent to treat non-invasive fungus-induced rhinosinusitis. […] The 125 non-invasive fungus-induced rhinosinusitis patients were started on an antifungal treatment of about 20 mL of an amphotericin B solution per nostril, two to four times daily for at least three months. The concentration of the amphotericin B solution was about 100 mg per liter of saline or water. A 20 mL bulb was used by the patient to mucoadminister the amphotericin B solution into the patient's nasal-paranasal anatomy. Data were compiled for 53 of the patients who had returned for their three month follow-up analysis.
# [2] = system: non-invasive fungus-induced rhinosinusitis patients; experiment: Patient data collected during a one week period (amphotericin B nasal irrigations); type: in vivo, human; parameters: Endoscopy Score B / Endoscopy Score A / Symptom Score B: scale not given here
# Source text: Only previously seen patients that were instructed to use the antifungal amphotericin B nasal irrigations were entered into this study.
# During a one week period, twenty patients returned to the physician's office (Table II). The average age of the returning patients was 47 years (range 16-74 years). The patients were using the amphotericin B irrigations for an average duration of about six months (range 1-16 months). […] In addition, some patients were using topical and systemic steroid therapy. Further, some patients were using an antibiotic nasal irrigation in addition to the antifungal irrigations. The antibacterial solution contained 80 mg gentamicin per L saline (Wilson's solution). Some patients mixed the antibacterial solution with the antifungal solution and then performed the nasal irrigations while others used each solution separately in a sequential manner. Some patients also had other diseases including asthma (15 of the 20 patients) and colitis (2 of the 20 patients).
# [3] = system: non-invasive fungus-induced rhinosinusitis patients; experiment: Amphotericin B nasal irrigation study, three month follow-up of 53 patients; type: in vivo, human
# Source text: In addition to patient interviewing, CT scan analysis, visual examination, and fungal culture analysis, two types of evaluations were used to score the success of the treatment: an endoscopic evaluation and a patient symptom evaluation.
# rhinosinusitis patient = experiment: Single patient, one-sided then two-sided amphotericin B irrigation with surgery, RAST to Alternaria
# Protocol: Only the left nasal-paranasal side, however, received surgery as well as intra-operative and post-operative treatment with about 20 mL of an amphotericin B solution (100 mg/L) two to four times daily.
# [4] = system: non-invasive fungus-induced rhinosinusitis patient; experiment: Eosinophil count in mucosal biopsies after antifungal treatment; type: in vivo, human; details: after nine months of irrigations twice a day
# Source text: A person was diagnosed with non-invasive fungus-induced rhinosinusitis and instructed to perform amphotericin B irrigations twice a day. After nine months of amphotericin B irrigations, the patient underwent sinus surgery for further improvement. During the surgery mucosal biopsies were collected and the eosinophil count compared to the those obtained from biopsies collected from the patient during a surgery prior to the antifungal treatment.
# [5] = system: non-invasive fungus-induced rhinosinusitis patients; experiment: Itraconazole nasal irrigations in rhinosinusitis patients; type: in vivo, human; parameters: symptom score before itraconazole irrigations / symptom score after itraconazole irrigations / endoscopic score, right side, before / endoscopic score, right side, after / endoscopic score, left side, before / endoscopic score, left side, after: scale not given here
# Protocol: Three non-invasive fungus-induced rhinosinusitis patients (person, person, and person) were instructed to perform nasal irrigation with an itraconazole solution. The itraconazole solution contained about 100 mg of itraconazole per L of solution (10% PEG-400 in sterile water) and was prepared as described herein. […] Each patient reported marked improvement in symptoms within two weeks of starting the itraconazole irrigations (symptom scores: −1 to +2 and −1 to +1).
# After treatment with itraconazole, that patient reported symptom improvement (symptom score: from −1 to 0).
# [6] = after antifungal treatment, nasal irrigations 1-16 months, 1-2x day, one line per patient, r26 and r28 switched to itraconazole for the last month, r13 stopped 8 months earlier
# [7] = before antifungal treatment (baseline), one line per patient
# [8] = after treatment, three month follow-up
# [9] = sixteen days after starting itraconazole irrigations, one patient
smiles,measurement,setting,value
C[C@@H]1[C@H](O)[C@@H](C)/C=C/C=C/C=C/C=C/C=C/C=C/C=C/[C@H](O[C@@H]2O[C@H](C)[C@@H](O)[C@H](N)[C@@H]2O)C[C@@H]2O[C@](O)(C[C@@H](O)C[C@@H](O)[C@H](O)CC[C@@H](O)C[C@@H](O)CC(=O)O[C@H]1C)C[C@H](O)[C@H]2C(=O)O [amphotericin B],symptom score before treatment,"[1]; baseline, no previous nasal surgery, one line per patient",−1
same,endoscopic score after treatment,"[1]; irrigations twice a day (b227 later four times a day) for fourteen, sixteen, four months",0
same,patients no longer exhibiting asthma symptoms who stopped taking their asthma medication,chronic asthma patients; after starting treatment,26 of the 28
same,asthmatic patients declaring improvement or complete elimination of asthma symptoms,chronic asthma patients; after three months of nasal irrigation treatment of Example 2,28 of the 37
same,patients with improved pulmonary function test after versus before treatment,chronic asthma patients; four of the 28 improved patients tested,all four
same,patients taking steroids after starting treatment,chronic asthma patients; of twenty-three patients on systemic steroids for asthma before,none
same,Endoscopy Score A,[2]; [6],0 (10×) and 3 (5×) and 1 (2×)
same,Symptom Score A,[2]; [6],+1 (6×) and +2 (6×) and 0 (6×) and −2 and 1
same,Endoscopy Score B,[2]; [7],1 (3×) and 2 (5×) and 3 (10×) and 0
same,Symptom Score B,[2]; [7],−1 (14×) and −2 (6×)
same,"endoscopic evaluation, overall outcome of the twenty patients","[2]; nasal irrigations, average about six months",most patients had an observable improvement
same,patients going from endoscopic evaluation stage 2 or 3 to stage 0,"[3]; after three months, about 20 mL of 100 mg/L solution per nostril, two to four times daily",33 of the 53
same,patients giving themselves symptom stage 0 (baseline/no change),[3]; [8],six of the 53
same,patients giving themselves symptom stage 1 (good/improved),[3]; [8],three of the 53
same,patients giving themselves symptom stage 2 (very good/free of symptoms),[3]; [8],44 of the 53
same,patients that did not respond to the treatment (of 53),[3]; endoscopic evaluation after three months,nine
same,non-responding patients whose mucus fungal organisms were resistant to the agent,[3]; five of the nine non-responders had mucus samples available,all five
same,CT scan finding after treatment,"[3]; one patient with bilateral rhinosinusitis, no recent surgery, no steroids, 20 mL of 100 mg/L per nostril two times daily, four months",complete disappearance of opacity and symptoms characteristic of rhinosinusitis
same,number of different fungal species in mucus after versus before treatment,"[3]; several patients, fungal organism culturing",remarkably reduced
same,RAST reading to Alternaria,rhinosinusitis patient; after surgery on the right side and irrigation of both sides for about seven weeks,4.47 KU/L
same,state of the treated left paranasal sinuses,"rhinosinusitis patient; at every post-operative visit, surgery plus irrigation of the left side",clear of disease
same,RAST reading to Alternaria,rhinosinusitis patient; before treatment (baseline),6.23 KU/L
same,RAST reading to Alternaria,"rhinosinusitis patient; only left side operated and irrigated (about 20 mL, 100 mg/L, two to four times daily), eight to ten weeks after symptoms disappeared on the left",7.16 KU/L
same,patient state by CT scan,"rhinosinusitis patient; six months after the last surgery, both sides irrigated",symptom-free and disease-free
same,RAST reading to Alternaria,"rhinosinusitis patient; six months post-operation, only left side treated, rhinosinusitis diagnosed on the right",10.0 KU/L
same,"eosinophil count in mucosal biopsies, all sinuses except the frontal",[4],< 5%
same,eosinophil count in the frontal sinus biopsy,"[4]; frontal sinus obstructed, presumably not reached",10%
same,local reaction to nasal irrigations,[5]; one patient (third patient),burning sensation
CCC(C)n1ncn(-c2ccc(N3CCN(c4ccc(OCC5COC(Cn6cncn6)(c6ccc(Cl)cc6Cl)O5)cc4)CC3)cc2)c1=O (centres unmarked) [itraconazole],symptom score after itraconazole irrigations,"[5]; about 100 mg per L (10% PEG-400 in sterile water), within two weeks, patients not responding to amphotericin B, one line per patient",+2 and +1 and 0
same,symptom score before itraconazole irrigations,"[5]; baseline, one line per patient",−1
same,"endoscopic score, left side, before","[5]; baseline, one patient",1
same,"endoscopic score, right side, before","[5]; baseline, one patient",1
same,local reaction to nasal irrigations,"[5]; human, in vivo",did not have any adverse local reaction
same,"endoscopic score, left side, after",[5]; [9],1
same,"endoscopic score, right side, after",[5]; [9],0
